The source of these data is US11358969B2, “Indole AHR inhibitors and uses thereof” (Ikena Oncology, Inc., priority 2017, dated 2022).

The test addresses T1, AHR (UniProt P35869).
T1 construct: IC50
T1 sequence (P35869 1-848): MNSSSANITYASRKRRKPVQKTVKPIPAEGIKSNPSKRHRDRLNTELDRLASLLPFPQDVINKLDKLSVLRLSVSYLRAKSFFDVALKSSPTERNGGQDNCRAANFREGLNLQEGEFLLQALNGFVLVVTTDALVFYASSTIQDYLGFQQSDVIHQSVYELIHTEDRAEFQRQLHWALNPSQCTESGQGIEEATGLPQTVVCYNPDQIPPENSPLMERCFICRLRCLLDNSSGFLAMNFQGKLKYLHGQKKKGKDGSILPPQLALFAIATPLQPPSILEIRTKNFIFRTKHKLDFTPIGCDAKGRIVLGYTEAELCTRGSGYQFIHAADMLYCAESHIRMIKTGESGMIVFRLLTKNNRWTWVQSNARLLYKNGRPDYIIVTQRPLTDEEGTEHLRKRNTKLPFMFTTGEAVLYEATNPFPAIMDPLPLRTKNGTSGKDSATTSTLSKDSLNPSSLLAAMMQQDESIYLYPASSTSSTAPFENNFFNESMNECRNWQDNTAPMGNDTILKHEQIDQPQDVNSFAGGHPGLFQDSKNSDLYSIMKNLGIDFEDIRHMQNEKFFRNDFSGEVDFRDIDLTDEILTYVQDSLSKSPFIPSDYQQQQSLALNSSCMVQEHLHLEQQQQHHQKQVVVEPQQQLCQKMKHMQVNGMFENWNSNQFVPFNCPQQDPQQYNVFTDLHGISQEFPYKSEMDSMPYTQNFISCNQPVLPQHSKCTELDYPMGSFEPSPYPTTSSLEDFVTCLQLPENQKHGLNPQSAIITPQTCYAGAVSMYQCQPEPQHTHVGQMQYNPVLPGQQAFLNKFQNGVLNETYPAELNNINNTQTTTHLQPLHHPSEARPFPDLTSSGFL
In words: DRE-Luciferase Reporter Assay (Alternate Method) (Example 1B). The following applies: cell line and AHR activating ligand not specified. The class given is cell-based, murine or human. The protocol: AHR binds to Dioxin Responsive Elements (DRE) upstream of genes that it activates. One measure of AHR activity is activation of a reporter gene, such as luciferase, downstream of one or multiple DRE elements. Luciferase activity will reflect activation and inhibition of AHR in the cells expressing his reporter.
Murine Hepa1-6 or Hepa-1c1c7 or other murine cell line with a DRE-luciferase reporter either stably or transiently transfected were plated in media in plates (96-well, 384-well or other plates) and incubated overnight at 37° C. in a CO2 incubator or compound and agonist were added at the time of plating. Likewise, human HepG2 or other human cell line with a DRE-luciferase reporter either stably or transiently transfected were plated in media in plates (96-well, 384-well or other plates) and incubated overnight at 37° C. in a CO2 incubator or compound and agonist were added at the time of plating.
At the time that cells are plated or following incubation overnight, an AHR activating ligand, such as TCDD, kynurenine, ITE (2-(1H-indole-3-ylcarbonyl)-4-thiazolecarboxylic methyl ester), VAF347, BNF (beta-naphthoflavone), FICZ (6-formylindolo(3,2-b) carbazole or other AHR ligands, was added with or without AHR antagonist.
Cells were incubated for 4, 15 or 24 hours or another time point and then lysed for determination of luciferase activity as a read-out of the AHR activation or inhibition. Luciferase was measured with a commercial kit such as the Promega Luciferase kit or any kit or reagents that provide the luciferin substrate for measuring luciferase activity. The level of luciferase with only activating ligand added was the maximum signal while the luciferase with no ligand was the minimum signal. IC50 values were determined as the concentration which inhibits half of the luciferase activity.
As a reminder, the IC50 is the concentration at which inhibition is half-maximal. A low value points to inhibition by little substance. With `CC(C)c1cnn2c(N[C@H]3CCc4cn[nH]c4C3)cc(-c3cncc(F)c3)nc12` (single isomer, unassigned) [I-32a], the IC50 was above 1500 nM.

Regarding `CC(C)c1cnn2c(N[C@H]3Cc4ccc(O)cc4C3)cc(-c3cncc(C#N)c3)nc12` (single isomer, unassigned) [I-37a], the IC50 is above 1500 nM. Next, `CC(C)c1cnn2c(N[C@H]3CCc4[nH]ncc4C3)cc(-c3cncc(F)c3)nc12` (single isomer, unassigned) [I-42a]: above 1500 nM; `CC(C)c1cnn2c(NC3CCc4cc(O)ccc4C3)cc(-c3cncc(F)c3)nc12` (stereo in doubt) [I-82b, (2R)-2-[[5-(5-fluoro-3-pyridyl)-3-isopropyl-pyrazolo[1,5-a]pyrimidin-7-yl]amino]tetralin-6-ol]: above 1500 nM.

As to `CC(C)c1cnn2c(NC3Cc4[nH]c5ccccc5c4C3)nc(-c3cncc(F)c3)nc12` (stereo in doubt) [I-263a, (2S)—N-[2-(5-Fluoro-3-pyridyl)-8-isopropyl-pyrazolo[1,5-a][1,3,5]triazin-4-yl]-1,2,3,4-tetrahydrocyclopenta[b]indol-2-amine], the IC50 lay in the range of 1000 to 1500 nM. `CC(C)n1cnc2c(NCCc3c[nH]c4ccncc34)nc(-c3cncc(F)c3)nc21` [I-8, 2-(5-Fluoro-3-pyridyl)-9-isopropyl-N-[2-(1H-pyrrolo[3,2-c]pyridin-3-yl)ethyl]purin-6-amine] gave an IC50 above 1500 nM. `CC(C)n1cnc2c(NCCn3c(=O)[nH]c4ccccc43)nc(-c3cncc(F)c3)nc21` [I-10, 3-[2-[[2-(5-Fluoro-3-pyridyl)-9-isopropyl-purin-6-yl]amino]ethyl]-1H-benzimidazol-2-one] showed an IC50 above 1500 nM. Take `Cc1[nH]c2c(F)cc(F)cc2c1CCNc1nc(-c2cncc(F)c2)nc2c1ncn2C(C)C` [I-11, N-(2-(5,7-Difluoro-2-methyl-1H-indol-3-yl)ethyl)-2-(5-fluoropyridin-3-yl)-9-isopropyl-9H-purin-6-amine]: the half-inhibitory concentration (IC50) was below 500 nM. `CC(C)n1cnc2c(NCCn3cnc4ccccc43)nc(-c3cncc(F)c3)nc21` [I-13, N-(2-(1H-Benzo[d]imidazol-1-yl)ethyl)-2-(5-fluoropyridin-3-yl)-9-isopropyl-9H-purin-6-amine] yielded a half-inhibitory concentration (IC50) above 1500 nM. `CC(C)n1cnc2c(NCCc3cn(C)c4ccccc34)nc(-c3cncc(F)c3)nc21` [I-14, 2-(5-Fluoropyridin-3-yl)-9-isopropyl-N-(2-(1-methyl-1H-indol-3-yl)ethyl)-9H-purin-6-amine] showed an IC50 above 1500 nM. Molecule `CC(C)n1cnc2c(NCCc3cnc4ccccn34)nc(-c3cncc(F)c3)nc21` [I-15, 2-(5-Fluoro-3-pyridyl)-N-(2-imidazo[1,2-a]pyridin-3-ylethyl)-9-isopropyl-purin-6-amine] returned an IC50 below 500 nM. In turn, `CC(C)Nc1cc(NCCc2c[nH]c3ccccc23)nc(-c2cncc(F)c2)n1` [I-20, 2-(5-Fluoro-3-pyridyl)-N6-[2-(1H-indol-3-yl)ethyl]-N4-isopropyl-pyrimidine-4,6-diamine] displayed an IC50 below 500 nM.

`CC(C)n1cnc2c(NCCc3cn4ccccc4n3)nc(-c3cncc(F)c3)nc21` [I-22, 2-(5-Fluoro-3-pyridyl)-N-(2-imidazo[1,2-a]pyridin-2-ylethyl)-9-isopropyl-purin-6-amine] displayed an IC50 below 500 nM.

`CC(C)n1cnc2c(NCCc3c[nH]c4c(F)cc(F)cc34)nc(-c3cncc(F)c3)nc21` [I-23, N-[2-(5,7-Difluoro-1H-indol-3-yl)ethyl]-2-(5-fluoro-3-pyridyl)-9-isopropyl-purin-6-amine] returned an IC50 below 500 nM. The molecule `O=C(c1cnn2c(N[C@@H]3CCc4[nH]c5ccccc5c4C3)cc(-c3cncc(F)c3)nc12)N1CCOCC1` [I-24, [5-(5-Fluoro-3-pyridyl)-7-[[(3R)-2,3,4,9-tetrahydro-1H-carbazol-3-yl]amino]pyrazolo[1,5-a]pyrimidin-3-yl]-morpholino-methanone] came in with a 50% inhibitory concentration (IC50) above 1500 nM. As for `CON(C)C(=O)c1cnn2c(N[C@@H]3CCc4[nH]c5ccccc5c4C3)cc(-c3cncc(F)c3)nc12` [I-25, 5-(5-Fluoro-3-pyridyl)-N-methoxy-N-methyl-7-[[(3R)-2,3,4,9-tetrahydro-1H-carbazol-3-yl]amino]pyrazolo[1,5-a]pyrimidine-3-carboxamide], the figure is above 1500 nM; as for `CC(C)c1cnn2c(N[C@@H]3CCc4[nH]c5ccccc5c4C3)cc(-c3ccccc3)nc12` [I-26, (3R)—N-(3-isopropyl-5-phenyl-pyrazolo[1,5-a]pyrimidin-7-yl)-2,3,4,9-tetrahydro-1H-carbazol-3-amine], above 1500 nM. For the molecule `CC(C)c1cnn2c(NC[C@@H](C)c3ccc(O)cc3)cc(-c3cncc(F)c3)nc12` [I-28a, 4-[(1S)-2-[[5-(5-fluoro-3-pyridyl)-3-isopropyl-pyrazolo[1,5-a]pyrimidin-7-yl]amino]-1-methyl-ethyl]phenol], the half-maximal inhibitory concentration (IC50) was above 1500 nM.

Molecule `CN1CCN(C(=O)c2cnn3c(N[C@@H]4CCc5[nH]c6ccccc6c5C4)cc(-c4cncc(F)c4)nc23)CC1` [I-29, [5-(5-Fluoro-3-pyridyl)-7-[[(3R)-2,3,4,9-tetrahydro-1H-carbazol-3-yl]amino]pyrazolo[1,5-a]pyrimidin-3-yl]-(4-methylpiperazin-1-yl)methanone] showed an IC50 above 1500 nM. In turn, `CC(C)c1cnn2c(NCCc3c[nH]c4ccccc34)ccnc12` [I-31, N-[2-(1H-indol-3-yl)ethyl]-3-isopropyl-pyrazolo[1,5-a]pyrimidin-7-amine] showed a 50% inhibitory concentration (IC50) above 1500 nM. Turning to `CC(O)c1cnn2c(NCCc3c[nH]c4ccccc34)cc(-c3cncc(F)c3)nc12` (centres unmarked) [I-33, 1-[5-(5-Fluoro-3-pyridyl)-7-[2-(1H-indol-3-yl)ethylamino]pyrazolo[1,5-a]pyrimidin-3-yl]ethanol], the IC50 was below 500 nM. `Cc1cnn2c(N[C@@H]3CCc4[nH]c5ccccc5c4C3)cc(-c3cncc(F)c3)nc12` [I-34, (3R)—N-[5-(5-Fluoro-3-pyridyl)-3-methyl-pyrazolo[1,5-a]pyrimidin-7-yl]-2,3,4,9-tetrahydro-1H-carbazol-3-amine] gave a concentration for half-maximal inhibition (IC50) above 1500 nM. Turning to `Fc1cncc(-c2cc(N[C@@H]3CCc4[nH]c5ccccc5c4C3)n3ncc(C(F)(F)F)c3n2)c1` [I-35, (3R)—N-[5-(5-Fluoro-3-pyridyl)-3-(trifluoromethyl)pyrazolo[1,5-a]pyrimidin-7-yl]-2,3,4,9-tetrahydro-1H-carbazol-3-amine], the 50% inhibitory concentration (IC50) is above 1500 nM. Molecule `CC(C)c1cnn2c(N[C@@H]3CCc4[nH]c5ccccc5c4C3)cc(-c3cncc(C#N)c3)nc12` [I-38, 5-[3-Isopropyl-7-[[(3R)-2,3,4,9-tetrahydro-1H-carbazol-3-yl]amino]pyrazolo[1,5-a]pyrimidin-5-yl]pyridine-3-carbonitrile] displayed a 50% inhibitory concentration (IC50) above 1500 nM. Molecule `Fc1cncc(-c2cc(N[C@@H]3CCc4[nH]c5ccccc5c4C3)n3nccc3n2)c1` [I-41, (3R)—N-[5-(5-Fluoro-3-pyridyl)pyrazolo[1,5-a]pyrimidin-7-yl]-2,3,4,9-tetrahydro-1H-carbazol-3-amine] showed an IC50 above 1500 nM. For `N#Cc1cncc(-c2cc(NCCc3c[nH]c4ccccc34)n3nccc3n2)c1` [I-43, 5-[7-[2-(1H-Indol-3-yl)ethylamino]pyrazolo[1,5-a]pyrimidin-5-yl]pyridine-3-carbonitrile], the half-maximal inhibitory concentration (IC50) was 500 to 1000 nM.

With `CC(C)c1cnn2c(NC3Cc4ccccc4C3)cc(-c3cncc(F)c3)nc12` [I-44, 5-(5-Fluoro-3-pyridyl)-N-indan-2-yl-3-isopropyl-pyrazolo[1,5-a]pyrimidin-7-amine], the half-maximal inhibitory concentration (IC50) was above 1500 nM. The molecule `CC(C)n1cnc2c(NC3Cc4ccc(O)cc4C3)nc(-c3cncc(F)c3)nc21` (centres unmarked) [I-48, 2-[[2-(5-fluoro-3-pyridyl)-9-isopropyl-purin-6-yl]amino]indan-5-ol] came in with a concentration for half-maximal inhibition (IC50) below 500 nM.

`Oc1ccc(CCNc2cc(-c3cncc(F)c3)nc3ccnn23)cc1` [I-49, 4-[2-[[5-(5-Fluoro-3-pyridyl)pyrazolo[1,5-a]pyrimidin-7-yl]amino]ethyl]phenol] registered a half-maximal inhibitory concentration (IC50) below 500 nM.
